SMILES	melting point [°C]
COC(=O)Nc1ccc2occ(CCNC(C)=O)c2c1 [Example 58, Methyl N-{3-[2-(acetylamino)ethyl]benzo[b]furan-5-yl}carbamate]	138 to 140
COC(=O)c1ccc2occ(CCNC(=O)C3CCCC3)c2c1 [Example 64, Methyl 3-{2-[(cyclopentylcarbonyl)amino]ethyl}1-benzofuran-5-carboxylate]	122 to 123
COC(=O)c1ccc2occ(CCNC(=O)C3CC3)c2c1 [Example 65, Methyl 3-{2-[(cyclopropylcarbonyl)amino]ethyl}-1-benzofuran-5-carboxylate]	154 to 155
NC(=O)c1ccc2occ(CCNC(=O)C3CC3)c2c1 [Example 68, 3-{2-[(Cyclopropylcarbonyl)amino]ethyl}-1-benzofuran-5-carboxamide]	209 to 210
NC(=O)c1ccc2occ(CCNC(=O)c3ccco3)c2c1 [Example 69, 3-[2-(2-Furoylamino)ethyl]-1-benzofuran-5-carboxamide]	110 to 112
CNC(=O)c1ccc2occ(CCNC(C)=O)c2c1 [Example 71, 3-[2-(Acetylamino)ethyl]-N-methyl-1-benzofuran-5-carboxamide]	158 to 159
CNC(=O)c1ccc2occ(CCNC(=O)C3CCCC3)c2c1 [Example 72, 3-{2-[(Cyclopentylcarbonyl)amino]ethyl}-N-methyl-1-benzofuran-5-carboxamide]	170 to 171
CC(=O)NCCc1coc2ccc(NC(=O)OC(C)(C)C)cc12 [Example 76, tert-Butyl 3-[2-(acetylamino)ethyl]-1-benzofuran-5-yl-carbamate]	146 to 148
